One assay relates to AMPA receptors. Description: Effect of compounds on the ionic current induced by AMPA in Xenopus oocytes. It is filed as cell-based. Particulars: Xenopus oocytes injected with rat cerebral cortex mRNA, (S)-AMPA 10 μM, voltage-clamp. How it is done:
mRNA's are prepared from cerebral cortex of male Wistar rats by the caesium chloride/guanidium thiocyanate method. The poly (A^+) mRNA's are isolated using the PolyATtract mRNA Isolation systems kit (Promega, USA) and injected at a level of 50 ng per oocyte. The oocytes are incubated for 3 to 4 days at 18° C. to permit expression of the receptors and are then stored at 4° C. until used.
Electrophysiological recordings are carried out continuously at ambient temperature in a Plexiglass® chamber using OR2 medium (J. Exp. Zool., 1973, 184, 321-334) by the “voltage-clamp” method using two electrodes, with a third electrode placed in the bath serving as reference.
All the compounds and the AMPA are applied via the perfusion medium. (S)-AMPA is used in a concentration of 10 μM. The ionic current induced by the application of AMPA in the absence and presence of compounds is measured. For each compound studied, the concentration that doubles (EC2×) or quintuples (EC5×) the intensity of the current induced by AMPA alone (5 to 50 nA) is determined.

Assay [1] has as its system Wistar rats aged 3 months. The assay can be described thus: Object recognition in adult Wistar rats aged 3 months. It counts as in vivo, rat. Particulars: male Wistar rats aged 3 months; 0.03 to 1 mg/kg by the oral route 60 minutes before each session; 24 hours between sessions. From the text:
The object recognition test in the Wistar rat was initially developed by ENNACEUR and DECACOUR (Behav. Brain Res., 1988, 31, 47-59). The test is based on the spontaneous exploratory activity of the animal and has the characteristics of episodic memory in humans. This memory test is sensitive to ageing (SCALL et al., Eur. J. Pharmacol., 1997, 325, 173-180) and to cholinergic dysfunctions (BARTOLINI et al., Pharm. Biochem. Behav. 1996, 53(2), 277-283) and is based on the differences in the exploration of 2 objects of fairly similar shape—one familiar, the other new. Prior to the test, the animals (male Wistar rats aged 3 months: CERJ, France) are habituated to the environment (an enclosure without an object). In the course of a first session, the rats are placed (3 minutes) in the enclosure, in which there are 2 identical objects. The duration of exploration is measured for each object. In the course of the second session (3 minutes), 24 hours later, 1 of the 2 objects is replaced by a new object. The duration of exploration is measured for each object. The assessment criterion is the difference, Delta, expressed in seconds, between the exploration times for the new object and for the familiar object in the course of the second session.

The subject of assay [2] is Wistar rats aged 17 months. Description: Object recognition in Wistar rats aged 17 months. It is filed as in vivo, rat. Particulars: male Wistar rats aged 17 months; 0.1 mg/kg by the oral route; 1 hour between sessions. As to the method: In old rats there is a deficiency in memory retention in the object recognition test. Prior to the test, the animals (male Wistar rats aged 17 months: CERJ, France) are habituated to the environment (an enclosure without an object). In the course of a first session, the rats are placed (3 minutes) in the enclosure, in which there are 2 identical objects. The duration of exploration is measured for each object. In the course of the second session (3 minutes), 1 hour later, 1 of the 2 objects is replaced by a new object. The duration of exploration is measured for each object. The assessment criterion is the difference, Delta, expressed in seconds, between the exploration times for the new object and for the familiar object in the course of the second session.

Where two headings read alike, the source gives them in different places.

As to `O=S1(=O)NCN(CCF)c2ccc(Cl)cc21` [Example 1, 7-Chloro-4-(2-fluoroethyl)-3,4-dihydro-2H-1,2,4-benzothiadiazine 1,1-dioxide], the concentration multiplying AMPA current (EC2× / EC5×) in the assay with AMPA receptors (read-out: EC2× (concentration that doubles the intensity of the current induced by AMPA alone)) is 6.7 ± 1.4 µM; with AMPA receptors (read-out: EC5× (concentration that quintuples the intensity of the current induced by AMPA alone)), 14.5 ± 0.6 µM. Further, the “memory retention (object recognition, Delta of exploration times)” value in assay [1] is given as “significantly improves memory retention”. In addition, in assay [2], the “age-related deficiency in memory retention (object recognition)” value was “significantly opposes the age-related deficiency in memory retention”.
